These results are taken from ChEMBL document CHEMBL1153530, “Pursuing aldose reductase inhibitors through in situ cross-docking and similarity-based virtual screening” (J Med Chem, 2009).

The target in the test is Aldo-keto reductase family 1 member B1 (Rattus norvegicus, UniProt P07943). The test can be described thus: Inhibition of ALR2 from Sprague-Dawley albino rat lens extract by spectrophotometrically.
What is called IC50 is the concentration that inhibits the measured activity by half. A low value points to inhibition by little substance. On to `Cc1ccc(S(=O)(=O)Oc2c(Cc3ccccc3)c(=O)n(C)c3ccccc23)cc1`, for which the half-maximal inhibitory concentration (IC50) came out at 31.1 µM.

As to `O=C(O)[C@@H]1CSCN1C(=O)OCC1c2ccccc2-c2ccccc21`, the IC50 came out at 3.92 µM.

Take `O=C(O)CCCc1nc(-c2cnc3n(c2=O)CCS3)no1`: the IC50 is 1.19 µM.

In turn, `COc1cccc2c1c(NC(=O)CSCC(=O)O)nn2C` returned a 50% inhibitory concentration (IC50) of 77.6 µM. The same measure for `N#CC(C#N)=CNc1ccc(S(=O)(=O)c2ccc(NC=C(C#N)C#N)cc2)cc1`: 52.7 µM; for `O=S(=O)(Oc1ccc2nonc2c1)c1ccc(Cl)s1`: 35.6 µM; for `O=C(O)C(Cc1ccc([N+](=O)[O-])cc1)NS(=O)(=O)c1ccccc1` (stereo unspecified): 107 µM. The same measure for `O=C(O)[C@H]1Cc2ccccc2N1C(=O)OCc1ccccc1`: 41.4 µM; for `CN(C)C(=O)Oc1ccc2nnc3ccnn3c2c1`: 38.7 µM.

Consider `O=[N+]([O-])c1c(Sc2ccccc2)sc(Sc2ccccc2)c1[N+](=O)[O-]`, for which 48.1 µM corresponded to half-maximal inhibition (IC50). The result for `O=C(O)C[C@@H](CC(=O)Nc1ccc2ccccc2n1)c1ccccc1` reads 85.3 µM.
